Source: ChEMBL document CHEMBL5131432, “Novel 2,4-disubstituted quinazoline analogs as antibacterial agents with improved cytotoxicity profile: Modification of the benzenoid part” (Bioorg Med Chem Lett, 2022)
Values after ≈ are worked out from the molar mass of the structure shown.

How the values were obtained:
Enterococcus faecium = assay: Antibacterial activity against Enterococcus faecium DSM-20477 assessed as bacterial growth inhibition; assay type: functional
Staphylococcus aureus [1] = assay: Antibacterial activity against methicillin-sensitive Staphylococcus aureus Newman assessed as bacterial growth inhibition; assay type: functional
Staphylococcus aureus [2] = assay: Antibacterial activity against methicillin-resistant and vancomycin-intermediate Staphylococcus aureus Mu50 assessed as bacterial growth inhibition; assay type: functional
Streptococcus pneumoniae [3] = assay: Antibacterial activity against Streptococcus pneumoniae DSM-20566 assessed as bacterial growth inhibition; assay type: functional
Escherichia coli [4] = assay: Antibacterial activity against Escherichia coli K12 harbouring TolC-deficient mutant assessed as bacterial growth inhibition; assay type: functional
Enterococcus faecalis = assay: Antibacterial activity against Enterococcus faecalis DSM-20478 assessed as bacterial growth inhibition; assay type: functional
Staphylococcus aureus [5] = assay: Antibacterial activity against methicillin-resistant Staphylococcus aureus N315 assessed as bacterial growth inhibition; assay type: functional
[6] = system: Mycolicibacterium smegmatis; assay: Antibacterial activity against Mycobacterium smegmatis mc2 155 assessed as bacterial growth inhibition; assay type: functional
[7] = Cytotoxicity against human HepG2 cells assessed as inhibition of cell growth; assay type: toxicity, cell-based
Escherichia coli [8] = assay: Antibacterial activity against wild type Escherichia coli DSM-11116 assessed as bacterial growth inhibition; assay type: functional
Streptococcus pneumoniae [9] = assay: Antibacterial activity against penicillin-resistant Streptococcus pneumoniae DSM-11865 assessed as bacterial growth inhibition; assay type: functional

Structure (SMILES) | MIC (Enterococcus faecium) [µg/mL] | MIC (Staphylococcus aureus [1]) [µg/mL] | MIC (Staphylococcus aureus [2]) [µg/mL] | MIC (Streptococcus pneumoniae [3]) [µg/mL] | MIC (Escherichia coli [4]) [µg/mL] | MIC (Enterococcus faecalis) [µg/mL] | MIC (Staphylococcus aureus [5]) [µg/mL] | MIC [6] [µg/mL] | IC50 [7] [µg/mL] | MIC (Escherichia coli [8]) [µg/mL] | MIC (Streptococcus pneumoniae [9]) [µg/mL]
CCCCNc1nc(SCCCC)nc2ccc(-c3cccc(C(=O)O)c3)cc12 | 8 (≈ 19.5 µM) | 8 (≈ 19.5 µM) | 8 (≈ 19.5 µM) | 4 (≈ 9.77 µM) | > 128 | 8 (≈ 19.5 µM) | 8 (≈ 19.5 µM) | > 128 | > 37 | > 128 | 16 (≈ 39.1 µM)
CCCCNc1nc(SCCCC)nc2cc(-c3cccnc3)ccc12 | > 128 | > 128 | > 128 | > 128 | > 128 | > 128 | > 128 | > 128 |  | > 128 | > 128
CCCCNc1nc(SCCCC)nc2ccc(-c3cccc(CO)c3)cc12 | > 128 | > 128 | > 128 | > 128 | > 128 | > 128 | > 128 | > 128 |  | > 128 | > 128
CCCCSc1nc(SCCCC)c2cc(N)ccc2n1 | 8 (≈ 24.9 µM) | 8 (≈ 24.9 µM) | 4 (≈ 12.4 µM) | 4 (≈ 12.4 µM) | > 128 | 32 (≈ 99.5 µM) | 4 (≈ 12.4 µM) | 32 (≈ 99.5 µM) | > 37 | > 128 | 8 (≈ 24.9 µM)
CCCCNc1nc(SCCCC)nc2ccc(-c3cccc(OC)c3)cc12 | > 128 | > 128 | > 128 | > 128 | > 128 | > 128 | > 128 | > 128 |  | > 128 | > 128
CCCCSc1nc(SCCCC)c2cc(NS(=O)(=O)CC)ccc2n1 | 8 (≈ 19.3 µM) | > 128 | > 128 | 4 (≈ 9.67 µM) | > 128 | 8 (≈ 19.3 µM) | > 128 | > 128 | > 37 | > 128 | 3 (≈ 7.25 µM)
CCCCNc1nc(SCCCC)nc2cc(-c3ccccc3)ccc12 | > 128 | > 128 | > 128 | > 128 | > 128 | > 128 | > 128 | > 128 |  | > 128 | > 128
CCCCNc1nc(SCCCC)nc2nn(CCCC)cc12 | > 128 | > 128 | > 128 | > 128 | > 128 | > 128 | > 128 | > 128 |  | > 128 | > 128
CCCCNc1nc(SCCCC)nc2cc(Cl)ccc12 | > 128 | > 128 | > 128 | > 128 | > 128 | > 128 | > 128 | > 128 |  | > 128 | > 128
CCCCNc1nc(SCCCC)nc2ccc(-c3cccnc3)cc12 | > 128 | > 128 | > 128 | > 128 | > 128 | > 128 | > 128 | > 128 |  | > 128 | > 128
CCCCNc1nc(SCCCC)nc2ccc(-c3cn[nH]c3)cc12 | > 128 | > 128 | > 128 | > 128 | > 128 | > 128 | > 128 | > 128 |  | > 128 | > 128
CCCCNc1nc(SC)nc2n[nH]cc12 | > 128 | 64 (≈ 270 µM) | 64 (≈ 270 µM) | > 128 | 64 (≈ 270 µM) | > 128 | 64 (≈ 270 µM) | > 128 |  | > 128 | > 128
CC(=O)NC[C@H]1CN(c2ccc(N3CCOCC3)c(F)c2)C(=O)O1 [LINEZOLID] | 4 (≈ 11.9 µM) | 1 (≈ 2.96 µM) |  |  | 16 (≈ 47.4 µM) |  |  | 4 (≈ 11.9 µM) |  | > 64 | 
CN[C@H](CC(C)C)C(=O)N[C@H]1C(=O)N[C@@H](CC(N)=O)C(=O)N[C@H]2C(=O)N[C@H]3C(=O)N[C@H](C(=O)N[C@H](C(=O)O)c4cc(O)cc(O)c4-c4cc3ccc4O)[C@H](O)c3ccc(c(Cl)c3)Oc3cc2cc(c3O[C@@H]2O[C@H](CO)[C@@H](O)[C@H](O)[C@H]2O[C@H]2C[C@](C)(N)[C@H](O)[C@H](C)O2)Oc2ccc(cc2Cl)[C@H]1O [VANCOMYCIN] |  |  | 8 (≈ 5.52 µM) | 0.5 (≈ 0.345 µM) | > 64 | 0.5 (≈ 0.345 µM) |  | 8 (≈ 5.52 µM) |  | > 64 | 1 (≈ 0.69 µM)
